Blank lines part the entries; values can stand above or below the molecule they belong to.
Assays:
NCI-H460 = conditions: read-out: IC50 NCI-H460; cited from earlier work
HCT-15 = conditions: read-out: IC50 HCT-15; cited from earlier work
[1] = test system: SUIT2, MIA PaCa-2 and MDA-MB-231 cell lines; experiment: cells; type: cell-based; conditions: read-out: IC50 values (range)
MIA PaCa-2/GemLuc cells = type: cell-based
[2] = test system: patient-derived PDAC organoids; type: cell-based, human
[3] = test system: MCF-7 breast cancer cells; experiment: cells; type: cell-based; conditions: Homo sapiens, MCF7, 72 h, read-out: IC50 against MCF-7 breast cancer cells

IC50 [1]: 2.4 to 8.7 nM
SMILES: COc1ccc(/C=C\c2cc(OC)c(OC)c(OC)c2)cc1O [CA-4, combretastatin A4]
IC50 (NCI-H460): 3 nM
IC50 (HCT-15): 1.7 nM

SMILES: Cc1cc2cc(O)ccc2[nH]1 [Compound L01, 2-Methyl-1H-indol-5-ol]
cell cycle arrest (red S/G2/M bioluminescence) (MIA PaCa-2/GemLuc cells): failed to elicit the same effect
antiproliferative activity against patient-derived PDAC organoids [2]: no antiproliferative activity

IC50 [3]: > 200000 nM
SMILES: C[C@]12CC[C@@H]3c4ccc(O)cc4CC[C@H]3[C@@H]1CCC2=O [estrone (5), Estrone]
